Results as given in publication PMC12029774 (Molecules, 2025).
Ends that are not written are not given here.

Columns and labels:
[1] = test system: rVSV-GFP-∆G-Spike, SARS-CoV-2 Delta spike; conditions: 1 h
[2] = test system: rVSV-GFP-∆G-Spike, SARS-CoV-2 Omicron B.A1 spike; conditions: 1 h

EWHGAHIKVTQLF-NH2 [PEP10]
IC50 [1]: 47 µM | IC50 [2]: 140 µM
